Earlier results on six compounds are cited in patent publication US8362077B2, “Chemical compositions for skin care emulsions and heavy duty hand cleansers” (Pibed Limited, priority 2008, dated 2013).

One data set relates to Staphylococcus aureus. Particulars: low concentrations (0.5 to 2 mM).
Another data set deals with Lactobacillus fermentum. The following applies: flow cytometry.
Data set [1] deals with Microsporum gypseum. The following applies: 10% in Vaseline petroleum jelly, topical, daily for 3 weeks.
Data set [2] has as its system Microsporum gypseum. Particulars: M. gypseum.

Read-outs that look alike come from different tables or passages of the source.

Turning to `CC(C)=CCC[C@](C)(O)C1CC=C(C)CC1` (some centres unmarked) [bisabolol], in the data set with Staphylococcus aureus, the “Susceptibility to ciprofloxacin, clindamycin, erythromycin, gentamicin, tetracycline and vancomycin” value (“Susceptibility to ciprofloxacin” for short) is “enhanced the susceptibility”. Besides, in the data set with Lactobacillus fermentum, the “Intracellular accumulation of ethidium bromide by live cells” value (“Intracellular accumulation” below) is “promoted the intracellular accumulation”.
`C=CCc1ccc(O)c(OC)c1` [eugenol]: in the data set with Microsporum gypseum [1], the “Histopathologic examination of skin tissues” value is “lower degree of hyperkeratosis and inflammatory cell infiltration than the positive control”; the Skin lesion scoring result is on record as “clinically effective at improving the lesion during the first week of application”. For the same compound, the MIC in the data set with Microsporum gypseum [2] is given as 0.01-0.03%.
On to `Clc1ccc(COC(Cn2ccnc2)c2ccc(Cl)cc2Cl)cc1` (centres unmarked) [econazole], for which, in the data set on Microsporum gypseum [2] (positive control), the MIC was 4 to 16 µg/mL.
Take `CC(C)=CCC/C(C)=C/CC1CCCC1=O` (centres unmarked) [apritone]: the “Susceptibility to ciprofloxacin” value in the data set on Staphylococcus aureus is “enhanced the susceptibility”. Also, the “Intracellular accumulation” value in the data set with Lactobacillus fermentum is recorded as “promoted the intracellular accumulation”.
For the compound `C=CC(C)(O)CCC=C(C)CCC=C(C)C` (centres unmarked) [nerolidol, 3,7,11-trimethyl-1,6,10-dodecatrien-3-ol], the “Susceptibility to ciprofloxacin” value in the data set with Staphylococcus aureus is listed as “enhanced the susceptibility”. Also, in the data set with Microsporum gypseum [1], the Hair culture test entry was “improved the skin lesions”; the “Histopathologic examination of skin tissues” value is “lower degree of hyperkeratosis and inflammatory cell infiltration than the positive control”; the Skin lesion scoring entry is recorded as “clinically effective at improving the lesion during the first week of application”. Besides, the MIC with Microsporum gypseum [2] is 0.5-2%. For the same compound, in the data set on Escherichia coli, the “Sensitization to polymyxin B” value is recorded as “sensitized Escherichia coli to polymyxin B”. The “Intracellular accumulation” value in the data set on Lactobacillus fermentum is reported as “promoted the intracellular accumulation”.
For `CC(C)=CCCC(C)=CCCC(C)=CCO` [farnesol], the “Sensitization to polymyxin B” value in the data set on Escherichia coli was “sensitized Escherichia coli to polymyxin B”. Moreover, in the data set with Lactobacillus fermentum, the “Intracellular accumulation” value is “promoted the intracellular accumulation”.
